pIC50: −log10 of the molar value.

The target in test [1] is Cyclin-dependent kinase inhibitor 1 (Homo sapiens) (UniProt P38936). Briefly: Selectivity ratio between p21(-/-) and p21(+/+) isogenic cell lines. In kind it is functional.
A further test concerns DLD-1. The test is described as follows: Inhibitory concentration against human colon tumor cell line DLD1. In kind it is functional, cell-based.
The test system of a further test is LoVo. The test is described as follows: Inhibitory concentration against human colon tumor cell line LoVo. In kind it is functional, cell-based.
The test system of the next test is SW-620. The test is described as follows: Inhibitory concentration against human colon tumor cell line SW620. In kind it is functional, cell-based.
A further test has as its system HT-29. The test is described as follows: Inhibitory concentration against human colon tumor cell line HT-29. In kind it is functional, cell-based.

Cyclin-dependent kinase inhibitor 1 (Homo sapiens), sequence (P38936 whole entry): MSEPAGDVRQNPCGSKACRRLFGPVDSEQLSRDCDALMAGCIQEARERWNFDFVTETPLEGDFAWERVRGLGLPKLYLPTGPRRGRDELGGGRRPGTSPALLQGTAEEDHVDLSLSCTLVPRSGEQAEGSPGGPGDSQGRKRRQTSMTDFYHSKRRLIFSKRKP

As for `COc1ccc(-c2nc(O)c3c4c(sc3n2)CCCC4)cc1`, the Ratio in test [1] is more than 8.5. The pIC50 is 6.54 in the test on DLD-1, 6.82 with LoVo, 6.64 with SW-620 and 6.48 in the test on HT-29.

Turning to `COc1ccc(-c2nc(O)c3c4c(sc3n2)CCC4)cc1`, the Ratio in test [1] was 8.3. The pIC50 in the test with DLD-1 was 6.54; in the test on LoVo, 6.82; in the test on SW-620 it was 6.64; in the test on HT-29, 6.48.

`COc1cc(-c2nc(O)c3c4c(sc3n2)CCC4)cc(OC)c1OC`: the Ratio in test [1] is more than 5.8. The pIC50 was 6.59 with DLD-1, 6.89 with LoVo, 6.72 with SW-620 and 6.52 in the test on HT-29.

For the compound `CCOc1ccc(-c2nc(O)c3c4c(sc3n2)CCCC4)cc1`, in test [1], the Ratio is more than 2.4. For the same compound, the pIC50 was 5.34 with DLD-1, 5.59 with LoVo, 5.30 in the test on SW-620 and 5.30 with HT-29.

`O=C(c1cccs1)c1cnn2c(-c3cccc(NC(=O)C4CC4)c3)ccnc12`: the Ratio in test [1] came to 30.

For the compound `COc1cc(-c2nc(O)c3c4c(sc3n2)CCCC4)cc(OC)c1OC`, the Ratio in test [1] was more than 8.7. For the same compound, the pIC50 with DLD-1 was 6.55; in the test on LoVo it was 6.85; in the test on SW-620, 6.72; in the test with HT-29, 6.62.

For the compound `COc1ccc(-c2nc(O)c3c4c(sc3n2)CCCC4)c(F)c1`, the Ratio in test [1] is 19. Also, the pIC50 was 6.66 in the test on DLD-1, 6.34 with LoVo, 6.38 in the test with SW-620 and 6.38 in the test on HT-29.

On to `COc1cc(-c2nc(O)c3c4c(sc3n2)CCCCC4)cc(OC)c1OC`, for which, in test [1], the Ratio worked out at 8.7. In addition, the negative-log IC50 (pIC50) in the test on DLD-1 was 6.46; with LoVo, 6.77; in the test with SW-620, 6.66; with HT-29, 6.35.

In the case of `CSc1ccc(-c2nc(O)c3c4c(sc3n2)CCCC4)cc1`, the Ratio in test [1] was more than 4.9. Also, the pIC50 was 6.05 in the test on DLD-1, 6.37 with LoVo, 6.10 with SW-620 and 6.00 with HT-29.

Source of the values: ChEMBL document CHEMBL1142782, “Inhibition of tumor cell proliferation by thieno[2,3-d]pyrimidin-4(1H)-one-based analogs” (Bioorg Med Chem Lett, 2005).
